We go through nine molecules from patent US4837226A, “Polycyclic amine derivatives useful as cerebrovascular agents” (Warner-Lambert Company, priority 1988, dated 1989).

Assay [1] has as its target phencyclidene (PCP) receptors. The experiment in a line: [3H]TCP receptor binding (RBS1), rat brain cortex membranes. The conditions noted are these: for IC50: [3H]TCP, rat brain cortex membranes, read-out: Inhibition of [^3 H]TCP Receptor Binding, RBS1 IC50; for potency compared with TCP and MK-801 (in words): comparison from Table II; for inhibition of [^3 H]TCP receptor binding (in words): conclusion from Table II. Here is the method: Tritiated TCP binding, designated RBS1, was carried out essentially as described in J. Pharmacol. Exp. Ther., 238, 739-748 (1986).

In assay [2] the test system is cultured rat cortical neurons. Kind of assay: Inhibition of hypoxia induced [45Ca] influx (HCI) into cultured rat cortical neurons. The format is cell-based. Particulars: for IC50: Cortical neurone, cultured rat cortical neurons, 95% N2/5% CO2, 37° C., 4 hours; for inhibition of hypoxia induced calcium influx (in words): conclusion from Table IV. The text has this:
(§1) The ability of the compounds of the instant invention to inhibit the glutamate and hypoxia stimulated influx of calcium into cultured rat cortical neurons is shown in Table III and Table IV respectively. The methodology for determining the ability of the compounds of the instant invention to inhibit the glutamate stimulated calcium influx (GCI) into cultured rat cortical neurons is to be found in: A. W. Probert and F. W. Marcoux, Soc. Neurosci. Abstr., 13, Part II, 754, (1987). Using a similar culture system, the ability of the compounds of the instant invention to inhibit the hypoxia stimulated influx of calcium (HCI) was determined by incubating cultured cells in an atmosphere of nitrogen (95%) and CO2 (5%) at 37° C. for a period of 4 hours. Calcium influx was determined by subtraction of the stimulated influx in the presence of tetrodotoxin (3 μM) and magnesium (10 mM) from that found in the absence (control) and in the presence of the test substance.

The test system of assay [3] is cultured rat cortical neurons. The experiment in a line: Inhibition of glutamate stimulated [45Ca] influx (GCI) into cultured rat cortical neurons. The format is cell-based. The conditions noted are these: for IC50: Cortical neurone, cultured rat cortical neurons, glutamate stimulated; for inhibition of glutamate stimulated influx of calcium (in words): conclusion from Table III.
Excerpt: as §1

Each structure is given as a SMILES string.

Take `NC12CCCCC1Cc1ccccc12` (centres unmarked) [Example 1, 1,2,3,4,9,9a-hexahydro-4aH-fluoren-4a-amine]: in assay [1], the IC50 worked out at 27 nM; the “potency compared with TCP and MK-801 (in words)” value was “potency comparable to both TCP and MK-801”; the “inhibition of [^3 H]TCP receptor binding (in words)” value is “potent inhibitors”. Further, in assay [2], half-maximal inhibition (IC50) was put at 167 nM and the “inhibition of hypoxia induced calcium influx (in words)” value is “potent inhibitors”.
For `CNC12CCCCC1Cc1ccccc12` (centres unmarked) [Example 2, 1,2,3,4,9,9a-hexahydro-N-methyl-4aH-fluoren-4a-amine], in assay [1], the IC50 came to 15 nM; the “potency compared with TCP and MK-801 (in words)” value was “potency comparable to both TCP and MK-801”; the “inhibition of [^3 H]TCP receptor binding (in words)” value is reported as “potent inhibitors”. Moreover, in assay [3], inhibition was half-maximal at 304 nM (IC50) and the “inhibition of glutamate stimulated influx of calcium (in words)” value (shortened to “inhibition … of calcium (in words)”) was “inhibit the glutamate stimulated influx of calcium”. In addition, in assay [2], half-maximal inhibition (IC50) was put at 5 nM and the “inhibition of hypoxia induced calcium influx (in words)” value is reported as “potent inhibitors”.
Consider `COCCCNC12CCCCC1Cc1ccccc12` (centres unmarked) [Example 8, 1,2,3,4,9,9a-hexahydro-N-(3-methoxypropyl)-4aH-fluoren-4a-amine], for which, in assay [1], the IC50 came out at 102 nM and the “inhibition of [^3 H]TCP receptor binding (in words)” value is on record as “potent inhibitors”. Also, in assay [3], the IC50 came to 1900 nM and the “inhibition … of calcium (in words)” value is “inhibit the glutamate stimulated influx of calcium”. In addition, in assay [2], the IC50 turned out to be 43 nM and the “inhibition of hypoxia induced calcium influx (in words)” value is given as “potent inhibitors”.
In the case of `CNC12CC(C)CCC1Cc1ccccc12` (centres unmarked) [Example 12, 1,2,3,4,9,9a-hexahydro-3-methyl-N-methyl-(4aH)-fluoren-4a-amine], in assay [1], the half-inhibitory concentration (IC50) is 95 nM and the “inhibition of [^3 H]TCP receptor binding (in words)” value is listed as “potent inhibitors”. Moreover, in assay [3], half-maximal inhibition (IC50) was put at 1900 nM and the “inhibition … of calcium (in words)” value was “inhibit the glutamate stimulated influx of calcium”. Besides, in assay [2], the IC50 stood at 95 nM and the “inhibition of hypoxia induced calcium influx (in words)” value was “potent inhibitors”.
On to `CCNC12CCCCC1Oc1ccccc12` (centres unmarked) [Example 27, N-ethyl-6,7,8,9-tetrahydro-9a(5aH)-dibenzofuranamine], for which, in assay [1], the IC50 amounted to 141 nM and the “inhibition of [^3 H]TCP receptor binding (in words)” value is listed as “potent inhibitors”. In assay [3], the IC50 worked out at 1800 nM and the “inhibition … of calcium (in words)” value is reported as “inhibit the glutamate stimulated influx of calcium”. In assay [2], the IC50 came to 124 nM and the “inhibition of hypoxia induced calcium influx (in words)” value is “potent inhibitors”.
Consider `CNC12CCCCC1Sc1ccccc12` (centres unmarked) [Example 30, 6,7,8,9-tetrahydro-N-methyl-9a(5aH)-dibenzothiophenamine], for which, in assay [1], the IC50 is 10 nM; the “potency compared with TCP and MK-801 (in words)” value is “potency comparable to both TCP and MK-801”; the “inhibition of [^3 H]TCP receptor binding (in words)” value is on record as “potent inhibitors”. Also, in assay [3], half-maximal inhibition (IC50) required 260 nM and the “inhibition … of calcium (in words)” value is “inhibit the glutamate stimulated influx of calcium”. Besides, in assay [2], the IC50 was determined as 200 nM and the “inhibition of hypoxia induced calcium influx (in words)” value is on record as “potent inhibitors”.
As to `C[C@]12N[C@H](Cc3ccccc31)c1ccccc12` [MK-801, reference compound], the results for the IC50 in assay [3] and in assay [2] were 51 nM and 34 nM, respectively.
On to `c1ccc(C2(N3CCCCC3)CCCCC2)cc1` [PCP, phencyclidene, reference compound], for which the half-inhibitory concentration (IC50) amounted to 40 nM in assay [1], 160 nM in assay [3] and 45 nM in assay [2].
Take `CNC1(c2ccccc2Cl)CCCCC1=O` (centres unmarked) [ketamine, reference compound]: the half-maximal inhibitory concentration (IC50) in assay [3] was 5500 nM; in assay [2], 1900 nM.

What is called IC50 is the midpoint of a concentration-inhibition curve.
